{
  "source": "patent US20210213037A1",
  "about": "“METHODS FOR TREATING FIBROSIS” (CHILDREN'S HOSPITAL MEDICAL CENTER, priority 2018, published 2021)",
  "key": {"TGFα mice": {"test_system": "TGFα mice", "test": "TGFα-induced pulmonary fibrosis mouse model, therapeutic intervention in established fibrosis", "type": "in vivo", "details": "vs vehicle", "from_the_text": "Mouse model of TGFα-induced pulmonary fibrosis and Barasertib treatment therapy The generation of TGFα-overexpressing mice has been described previously (HARDIE et al. (2004) “Conditional expression of transforming growth factor-alpha in adult mouse lung causes pulmonary fibrosis” Am J Physiol Lung Cell Mol Physiol, Vol. 286, pp. L741-749, which is herein incorporated by reference in its entirety). Clara cell-specific protein-rtTA^+/− (CCSP-rtTA) mice were crossed with heterozygous (TetO)7-cmv TGFα mice to produce bitransgenic CCSP/TGFα mice. To induce TGFα expression, the transgenic mice were fed with doxycycline (Dox)-containing chow (62.5 mg/kg) (MADALA et al. (2014) “Inhibition of the alphavbeta6 integrin leads to limited alteration of TGF-alpha-induced pulmonary fibrosis” Am J Physiol Lung Cell Mol Physiol, Vol. 306, pp. L726-735, which is herein incorporated by reference in its entirety). They were housed under specific pathogen-free conditions and handled in accordance with protocols approved by the Institutional Animal Care and Use Committee of the Cincinnati Children's Hospital Research Foundation. Barasertib (Selleckchem, Houston, Tex.) was prepared in fresh vehicle (5% DMSO and 50% PEG in PBS) every day before treatment. […]"}, "[1]": {"test_system": "idiopathic pulmonary fibrosis", "details": "cited from earlier work"}},
  "data": [
    {"compound": "COC(=O)c1ccc2c(c1)NC(=O)/C2=C(\\Nc1ccc(N(C)C(=O)CN2CCN(C)CC2)cc1)c1ccccc1", "note": "[nintedanib]", "values": [
      {"measurement": "fibroproliferation (Ki67 immunostaining of lung sections)", "setting": "TGFα mice; Dox two weeks, then barasertib 25 or 50 mg/kg QD or nintedanib 60 mg/kg QD for 5 days, data not shown", "value": "reduction in fibroproliferation"},
      {"measurement": "expression of ECM genes (Co11α, FN1; RT-PCR)", "setting": "TGFα mice; barasertib 25 or 50 mg/kg QD or nintedanib 60 mg/kg QD i.p., FIG. 14", "value": "attenuated"},
      {"measurement": "effect on mortality", "setting": "[1]", "value": "neither pirfenidone nor nintedanib had any effect"}
    ]},
    {"compound": "Cc1ccc(=O)n(-c2ccccc2)c1", "note": "[pirfenidone]", "values": [
      {"measurement": "effect on mortality", "setting": "[1]", "value": "neither pirfenidone nor nintedanib had any effect"},
      {"measurement": "effect on respiratory symptoms", "setting": "[1]", "value": "no effect"}
    ]}
  ]
}
